The source made the active and inactive calls. The rule behind the calls is not given here.
Tests used:
Format in all cases: functional, organism-based
Settings in all cases: route top, time 7.0 day
Mus musculus [1] = assay: Anti-inflammatory activity in BALB/c mouse model of IMQ-induced psoriasis assessed as reduction in PASI score at 100 mg administered topically as 0.005% ointment measured daily for 7 days by H and E staining based analysis
Mus musculus [2] = assay: Anti-inflammatory activity in BALB/c mouse model of IMQ-induced psoriasis assessed as improvement in skin thickening at 100 mg administered topically as 0.005% ointment measured daily for 7 days by H and E staining based analysis
Mus musculus [3] = assay: Anti-inflammatory activity in BALB/c mouse model of IMQ-induced psoriasis assessed as improvement in erythema at 100 mg administered topically as 0.005% ointment measured daily for 7 days by H and E staining based analysis

C=C1/C(=C\C=C2/CCC[C@]3(C)[C@@H]([C@H](C)/C=C/[C@@H](O)C4CC4)CC[C@@H]23)C[C@@H](O)C[C@@H]1O
Activity (Mus musculus [1]): Active | Activity (Mus musculus [2]): inactive | Activity (Mus musculus [3]): inactive

Reference: ChEMBL document CHEMBL5532677, “From Hit to Lead: Structure-Based Optimization of Novel Selective Inhibitors of Receptor-Interacting Protein Kinase 1 (RIPK1) for the Treatment of Inflammatory Diseases” (J Med Chem, 2024)
